Measured values: US9713613B2, “Methods and compositions for the treatment of cancer and related hyperproliferative disorders” (priority 2007, dated 2017)

Test system: DU145 cells
Experiment: Oligonucleotide microarray analysis (Affymetrix) of treated DU145 cells
Type: cell-based, human
Design: dose or concentration left out as unconfirmed
Conditions: DU145, 6 hrs
Method: Gene expression profile comparison of the drug-treated and untreated cells might reveal specific molecular pathways affected by fatostatin A. DU145 cells were treated with fatostatin A or DMSO alone, and extracted mRNA samples were analyzed by Affimetrix DNA microarrays mapping 33,000 genes (Table 1).
(§1) DU145 prostate cancer cells were treated with […] of fatostatin A or DMSO alone in the presence of 1 μg/mL of IGF1 for 6 hrs in a serum free medium, total RNA was extracted in a TRI reagent (Molecular Research Center) and further isolated by RNeasy Mini Kit (Qiagen). Purified mRNA was analyzed in Baylor College of Medicine Microarray Core Facility by Affymetrix Human Genome U133 Plus 2.0 Array consisting of almost 45,000 probe sets representing more than 39,000 transcripts derived from approximately 33,000 well-substantiated human genes (Affymetrix, Inc.).
As described herein, fatostatin inhibits the insulin-induced adipogenesis of 3T3-L1 cells and the serum-independent growth of DU145 cells (Choi et al., 2003). Gene expression profiles of drug-treated and untreated cells were compared to gain information about specific molecular pathways affected by fatostatin. DU145 cells were treated with fatostatin or DMSO alone, and the extracted mRNA samples were analyzed by Affymetrix DNA microarrays mapping 33,000 genes. Of those genes (all of which are available at the National Center for Biotechnology Information's GenBank database on the world wide web), transcription levels of 63 genes decreased at least 35% in response to fatostatin treatment (Table 5). Thirty-four of the affected genes were directly associated with fat or sterol synthesis, such as genes encoding biosynthetic enzymes, and 18 of the affected genes have been reported to be controlled by SREBPs (Horton et al., 2003). Downregulation of the affected SREBP-responsive genes was confirmed by RT-PCR experiments.
as §1, with “Oligonucleotide microarray analysis. DU145” for “DU145”, “fatostatin” for “fatostatin A”

CCCc1cc(-c2nc(-c3ccc(C)cc3)cs2)ccn1 [Compound 1, 2-propyl-4-(4-p-tolylthiazol-2-yl)pyridine]
transcription level (fold), famesyl-diphosphate farnesyltransferase (:AA872727): 0.5359
transcription level (fold), mevalonate (diphospho) decarboxylase (A1189359): 0.3299
transcription level (fold), stearoyl-CoA desaturase (delta-9-desaturase) (AB032261): 0.5743
transcription level (fold), Homo sapiens putative sterol reductanse SR-1 (TM7SF2) (AF096304): 0.6156
transcription level (fold), squalene epoxidase (AF098865): 0.5
Decreased fold, Homo sapiens androgen-regulated short-chain dehydrogenaseneductase 1 (AF167438): 0.6598
transcription level (fold), Homo sapiens androgen-regulated short-chain dehydrogenasereductase 1 (ARSDR1) (AF167438): 0.6598
transcription level (fold), Cullin 4B (AI670819): 0.7071
transcription level (fold), low density lipoprotein receptor (familial hypercholesterolemia) (AI861942): 0.5743
transcription level (fold), ATP citrate lyase (AI971281): 0.5743
Decreased fold, acetyl-CoA synthetase (AK000162): 0.5359
transcription level (fold), acetyl-CoA synthetase (AK000162): 0.5359
transcription level (fold), malic enzyme 1, NADP(+)-dependent, cytosolic (AL049699): 0.7071
transcription level (fold), 3-hydroxy-3-methylglutaryl-Coenzyme A reductase (AL518627): 0.5
transcription level (fold), human glucose transporter pseudogene (AL565516): 0.7071
transcription level (fold), Tubulin, beta 4 (AL565749): 0.6598
transcription level (fold), tubulin, alpha 1 (testis specific) (AL575074): 0.4665
transcription level (fold), cytochrome P450, subfamily I (dioxin-inducible), polypeptide 1 (AU144855): 0.5
transcription level (fold), lanosterol synthase (2,3-oxidosqualene-lanosterol cyclase) (AW084510): 0.5743
transcription level (fold), cytochrome b5 outer mitochondrial membrane precursor (AW235051): 0.5743
transcription level (fold), acetyl-Coenzyme A carboxylase alpha (B3855983): 0.5743
transcription level (fold), NAD(P) dependent steroid dehydrogenase-like; H105e3 (BC000245): 0.4665
transcription level (fold), acetyl-Coenzyme A acetyltransferase 2 (acetoacetyl Coenzyme A thiolase) (BC000408): 0.5743
Decreased fold, acetyl-Coenzyme A acetyltransferase 2 (BC000408.1): 0.5743
transcription level (fold), Homo sapiens, similar to tubulin, beta4 (BC002654): 0.6598
transcription level (fold), isopentenyl-diphosphate delta isomerase (BC005247): 0.4665
transcription level (fold), Homo sapiens, tubulin, beta5 (BC005838): 0.6598
transcription level (fold), insulin induced gene 1 (BE300521): 0.3299
transcription level (fold), dihydrolipoamide S-acetyltransferase (BF978872): 0.6598
transcription level (fold), DNAJ (Hsp40) homolog, subfamily B, member 4 (BG252490): 0.7071
Decreased fold, lanosterol synthase (D63807.1): 0.6156
transcription level (fold), lanosterol synthase (2,3-oxidosqualene-lanosterol cyclase) (D63807.1): 0.6156
transcription level (fold), lipin 1 (D80010.1): 0.5
Decreased fold, sterol-05-desaturase (D85181.1): 0.5
transcription level (fold), sterol-C5-desaturase (fungal ERG3, delta-5-desaturase)-like (D85181.1): 0.5
transcription level (fold), Fatty-acid-Coenzyme A ligase, long-chain 3 (D89053.1): 0.7071
transcription level (fold), prostaglandin E2 receptor (L32662.1): 0.5
Decreased fold, 3-hydroxy-3-methylglutaryl-Coenzyme A reductase (HMG CoA R) (NM000859.1): 0.5
Decreased fold, 3-hydroxy-3-methylglutaryl-Coenzyme A synthase 1 (HMG CoA S) (NM 0002130.1): 0.3536
Decreased fold, mevalonate decarboxylase (MVD) (NM002461.1): 0.3299
Decreased fold, squalene epoxidase (NM 003129.2): 0.5
Decreased fold, Insulin induced gene 1 (INSIG1) (NM 005542.1): 0.3299
Decreased fold, fatty acid desaturase 1 (NM005931.1): 0.6598
Decreased fold, emopamil-bindingprotein (sterol isomerase) (NM006579.1): 0.6156
Decreased fold, dihydrolipoamide S-acetyltransferase (NM0019312): 0.6598
transcription level (fold), cytochrome P450, subfamily I (dioxin-inducible), polypeptide 1 (NM_00010): 0.3299
transcription level (fold), mevalonate kinase (mevalonic aciduria) (NM_00043): 0.5
transcription level (fold), nuclear receptor subfamily O, group B, member 1 (NM_00047): 0.5359
transcription level (fold), low density lipoprotein receptor (familial hypercholesterolemia) (NM_00052): 0.6156
transcription level (fold), cytochrome P450, 51 (lanosterol 14-alpha-demthylase) (NM_00078): 0.5359
transcription level (fold), 3-hydroxy-3-methylglutaryl-Coenzyme A reductase (NM_00085): 0.4665
transcription level (fold), ATP citrate lyase (NM_00109): 0.7071
transcription level (fold), dehydrocholesterol reductase (NM_00136): 0.5743
transcription level (fold), fibroblast growth factor 2 (basic) (NM_00200, Hs.284244): 0.5
transcription level (fold), farnesyl diphosphate synthase (NM_00200, Hs.77393): 0.6598
transcription level (fold), 3-hydroxy-3-methylglutaryl-Coenzyme a synthase 1 (soluble) (NM_00213): 0.3536
transcription level (fold), meningioma (disrupted in balanced translocation) 1 (NM_00243): 0.6156
transcription level (fold), Homo sapiens periplakin (PPL) (NM_00270): 0.6156
transcription level (fold), H2B histone family, member Q (NM_00352): 0.5
transcription level (fold), basic heliz-loop-helix domain containing, class B, 2 (NM_00367): 0.5743
transcription level (fold), tumor necrosis factor (ligand) superfamily, member9 (NM_00381): 0.5743
Decreased fold, mevalonate kinase (MVK) (NM_000431.1): 0.5
Decreased fold, low density lipoprotein receptor (LDLR) (NM_000527.2): 0.5743
transcription level (fold), UDP-N-acetylglucosamine-2-epimerase-N-acetrylmannosamine kinase (NM_00547): 0.5743
transcription level (fold), Isocitrate dehydrogenase 1 (NADP+), soluble (NM_00589): 0.7071
transcription level (fold), fatty acid desaturase 1 (NM_00593): 0.6598
transcription level (fold), lipase, endothelial (NM_00603): 0.5359
transcription level (fold), IGF-II mRNA-binding protein 3 (NM_00654): 0.4665
transcription level (fold), emopamil-binding protein (sterol isomerase) (NM_00657): 0.6156
transcription level (fold), serum-inducible kinase (NM_00662): 0.5743
Decreased fold, acetyl-Coenzyme A carboxylase alpha (NM_000664.1): 0.5743
Decreased fold, ATP citrate lyase (NM_001096.1): 0.5743
transcription level (fold), hydroxysteroid (17-beta) dehydrogenase 7 (NM_01637): 0.4665
Decreased fold, farnesyl pyrophosphate syntlietase (NM_002004.1): 0.6598
Decreased fold, fatty-acid-Coenzyme A ligase long chain 3 (NM_004457.2): 0.7071
Decreased fold, famesyl-diphosphate famesyltransferase 1 (NM_004462.1): 0.5359
Decreased fold, stearoyl-CoA desaturase (SCD) (NM_005063.1): 0.5743
transcription level (fold), seladin-1 (NM_014676): 0.6598
Decreased fold, hydroxysteroid (17-beta) dehydrogenase 7 (NM_016371.1): 0.4665
Decreased fold, fatty-acid-Coenzyme A ligase long chain 4 (NM_022977.1): 0.7071
transcription level (fold), low density lipoprotein receptor (familial hypercholesterolemia) (S70123.1): 0.7071
transcription level (fold), ATP citrate lyase (U18197.1): 0.5743
transcription level (fold), cytochrome P450, 51 (lanosterol 14-alpha-demethylase) (U40053): 0.4665
transcription level (fold), pinin, desmosome associated protein (U59479.1): 0.5359
